Test results from patent publication US10392352B2, “Etomidate derivative and intermediate, preparation method and use thereof” (JIANGSU NHWALUOKANG PHARMACEUTICAL RESEARCH AND DEVELOPMENT …, priority 2015, dated 2019).

Columns and labels:
[1] = test system: Male Kunming mice; experiment: Test for latent period and persistent period of anesthesia in mice; assay type: in vivo; details: 6 mg/kg (3*ED50), caudal vein, n = 5; for Latent period: time for disappearance of righting reflex; for Persistent period: time for recovery
Procedure: Test of the etomidate derivative of the present invention for latent period and persistent period of anesthesia in mice
Male Kunming mice were divided into groups, 5 for each group. The test drug was administered by injection at a constant rate via caudal vein for 10 seconds. The time for disappearance of righting reflex (latent period) and the time for recovery (persistent period) were recorded.

[2] = Test of ED50 and LD50 of anesthesia in mice (sequential method; disappearance of righting reflex or death); assay type: in vivo; details: mouse, in vivo; male KM mice, caudal vein injection over 10 s, death, n = 10-20; range in brackets
Procedure: (§1) Test of ED50 and LD50 of the etomidate derivative of the present invention in mice
(§2) Accurately weighed compounds 14, 15, 16 and 18 (5 mg for each of the compounds) were placed in 10 ml centrifuge tubes, respectively. Then 1 ml blank emulsion (20% soybean oil blank emulsion) was added to each tube, and the mixture was sonicated in an ultrasonic apparatus for several minutes to obtain a 5 mg/ml homogeneous emulsion, which was drawn by an injection syringe right before use. An etomidate fat emulsion injection (commercially available, 2 mg/ml) was used as control. The administration concentration in mice was fixed, and the administration volume varied according to actual situation.
(§3) ED50 and LD50 values concerning anesthesia were determined using a sequential method. Administrations in this test were performed on qualified healthy KM mice (male) by injection at a constant rate via caudal vein for 10 seconds. Before the test, a preliminary trial test was conducted to determine an approximate dosage (administration volume) that leads to anesthetization (or death) in animals, which was then set as the intermediate dosage in the formal test. 2-3 Dosage groups were set above and below the intermediate dosage group with an interval of 0.8. The disappearance of righting reflex or death was used as indicators of pharmacological efficacy or toxicity, respectively. The formal test began with the administration of the intermediate dosage. If animals were anesthetized, a lower dosage was administered; otherwise if animals were not anesthetized, a higher dosage was administered, until the cycle was repeated for 3-4 times. LD50 and ED50 values of anesthesia were calculated by a sequential method on aot425 software. TI was calculated according to the following equation: TI=LD50/ED50.

[3] = test system: KM mice (male); experiment: as above; assay type: in vivo; details: for ED50: Mus musculus; for TI: TI=LD50/ED50, mice
Procedure: as §1, §2, §3

[4] = test system: mice; experiment: Influence on the blood pressure and followed-up reactions after recovery in mice anesthesia test; assay type: in vivo; details: for tail bleeding: few / tail bleeding: much / tail bleeding: none / tremor / grooming: after administration & before anesthesia
[5] = biological target: T1, 11β-hydroxylase (Homo sapiens, UniProt P15538); details: background statement; cited from earlier work
T1 sequence (P15538 25-503): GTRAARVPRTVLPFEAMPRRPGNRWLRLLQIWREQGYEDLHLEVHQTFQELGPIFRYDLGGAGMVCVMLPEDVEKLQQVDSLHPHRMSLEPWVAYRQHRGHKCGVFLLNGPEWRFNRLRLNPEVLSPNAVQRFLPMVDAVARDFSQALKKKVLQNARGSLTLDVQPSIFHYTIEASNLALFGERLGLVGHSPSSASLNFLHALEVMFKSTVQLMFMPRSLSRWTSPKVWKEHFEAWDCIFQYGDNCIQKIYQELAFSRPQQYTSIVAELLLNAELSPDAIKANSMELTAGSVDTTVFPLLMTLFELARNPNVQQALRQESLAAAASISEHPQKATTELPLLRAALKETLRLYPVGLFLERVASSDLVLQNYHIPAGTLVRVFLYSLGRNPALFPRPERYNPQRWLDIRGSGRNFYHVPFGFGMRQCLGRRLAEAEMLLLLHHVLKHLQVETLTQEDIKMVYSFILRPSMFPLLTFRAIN

[6] = test system: secretion of cortisol and/or corticosterone; details: background, literature; cited from earlier work
[7] = background, literature; cited from earlier work

`COC(=O)c1c(F)ncn1[C@H](C)c1ccccc1` [Compound 15, methyl R-1-(1-phenethyl)-1H-4-fluoroimidazole-5-carboxylate] gave a Walking time [1] of 68.80 ± 30.10 s, a Latent period [1] of 5.90 ± 0.88 s and a Persistent period [1] of 83.60 ± 29.13 s. For the same molecule, the LD50 [2] was 48.4 mg/kg, the ED50 [3] was 2 mg/kg and the TI [3] was 24. For the same molecule, the “tail bleeding: few” value [4] was 50%, the “tail bleeding: much” value [4] was 40% and the “tail bleeding: none” value [4] was 10%. For the same molecule, the tremor [4] was 70% and the quiet ([4]; post-recovery) was 100%.
With `CCOC(=O)c1c(F)ncn1[C@H](C)c1ccccc1` [Compound 16, ethyl R-1-(1-phenethyl)-1H-4-fluoroimidazole-5-carboxylate] the Walking time [1] was 98.10 ± 63.96 s, the Latent period [1] was 5.80 ± 0.79 s and the Persistent period [1] was 82.10 ± 20.18 s. The LD50 [2] was 46.5 mg/kg, the ED50 [3] was 2 mg/kg and the TI [3] was 23. For the same molecule, the grooming [4] was 10%, the “tail bleeding: few” value [4] was 60% and the “tail bleeding: much” value [4] was 30%. The “tail bleeding: none” value [4] was 10%, the tremor [4] was 70% and the jump ([4]; post-recovery) was 20%. It also gave a quiet ([4]; post-recovery) of 80%.
For `CCOC(=O)c1cncn1[C@H](C)c1ccccc1` [Etomidate, ethyl R-(+)-1-(1-phenethyl)-1H-imidazole-5-carboxylate], the “inhibitory effect on 11β-hydroxylase” value [5] is given as “inhibitory effect”, the Walking time [1] is given as 156.30 ± 120.78 s and the Latent period [1] is given as 5.40 ± 0.52 s. It also gave a Persistent period [1] of 175.50 ± 100.09 s, an LD50 [2] of 50.3 mg/kg and an ED50 [3] of 2 mg/kg. The TI [3] was 25, the grooming [4] was 20% and the “tail bleeding: few” value [4] was 50%. For the same molecule, the “tail bleeding: much” value [4] was 10%, the “tail bleeding: none” value [4] was 40% and the tremor [4] was 80%. The convulsion ([4]; post-recovery) was 10%, the jump ([4]; post-recovery) was 40% and the quiet ([4]; post-recovery) was 50%. The “inhibitory effect on the secretion of cortisol and/or corticosterone” value (“inhibitory effect on the secretion” below) [6] was “reduce the secretion”.
In the case of `COC(=O)CCOC(=O)c1cncn1[C@H](C)c1ccccc1` [Formula 7, Methoxycarbonyl-etomidate], the “anesthetic effect / activity” value [7] is given as “drastically decreased anesthetic effect” and the “inhibitory effect on the secretion” value [6] is given as “lower inhibitory effect”.
In the case of `CCOC(=O)c1cccn1[C@H](C)c1ccccc1` [Formula 8], the “anesthetic effect / activity” value [7] is listed as “decreased anesthetic activity”, the duration of action [7] is listed as “prolonged duration of action” and the “inhibitory effect on the secretion” value [6] is listed as “little inhibition”.
